Measurements taken from the NIST ThermoML archive (doi:10.1021/je1002237).

Assay: xn = mol fraction of the nth substance listed
Conditions: 101 kPa, Liquid

CCOS(=O)(=O)[O-].CCn1cc[n+](C)c1 [1-ethyl-3-methylimidazolium ethyl sulfate] + CC(C)=O
mass density [kg/m3]
Conditions | 278.15 K | 283.15 K | 288.15 K | 293.15 K | 298.15 K | 303.15 K | 308.15 K
x2 = 0 | 1251.04 | 1247.5 | 1244.04 | 1240.66 | 1237.27 | 1233.89 | 1230.51
x2 = 0.0048 | 1250.35 | 1246.8 | 1243.35 | 1239.97 | 1236.57 | 1233.18 | 1229.8
x2 = 0.0098 | 1249.71 | 1246.16 | 1242.72 | 1239.31 | 1235.93 | 1232.54 | 1229.15
x2 = 0.015 | 1248.99 | 1245.43 | 1242 | 1238.59 | 1235.2 | 1231.8 | 1228.41
x2 = 0.0249 | 1247.95 | 1244.39 | 1240.97 | 1237.55 | 1234.16 | 1230.76 | 1227.37
x2 = 0.0399 | 1245.49 | 1241.93 | 1238.51 | 1235.1 | 1231.67 | 1228.26 | 1224.86
x2 = 0.06 | 1242.52 | 1238.99 | 1235.56 | 1232.12 | 1228.69 | 1225.26 | 1221.85
x2 = 0.0799 | 1239.64 | 1236.15 | 1232.7 | 1229.24 | 1225.79 | 1222.35 | 1218.92
x2 = 0.1002 | 1236.48 | 1233.02 | 1229.54 | 1226.07 | 1222.61 | 1219.16 | 1215.71
x2 = 0.1501 | 1228.75 | 1225.24 | 1221.72 | 1218.21 | 1214.71 | 1211.21 | 1207.73
x2 = 0.2066 | 1218.26 | 1214.69 | 1211.11 | 1207.54 | 1204 | 1200.46 | 1196.93
x2 = 0.2998 | 1200.04 | 1196.37 | 1192.71 | 1189.06 | 1185.43 | 1181.81 | 1178.19
x2 = 0.3999 | 1176.43 | 1172.65 | 1168.88 | 1165.13 | 1161.39 | 1157.66 | 1153.94
x2 = 0.5 | 1146.24 | 1142.32 | 1138.42 | 1134.53 | 1130.65 | 1126.78 | 1122.92
x2 = 0.6 | 1109.44 | 1105.35 | 1101.27 | 1097.2 | 1093.15 | 1089.1 | 1085.07
x2 = 0.7 | 1062.54 | 1058.23 | 1053.92 | 1049.61 | 1045.32 | 1041.02 | 1036.74
x2 = 0.8 | 1001.65 | 997.03 | 992.4 | 987.78 | 983.15 | 978.52 | 973.88
x2 = 0.9003 | 920.34 | 915.32 | 910.28 | 905.21 | 900.15 | 895.06 | 889.95
x2 = 0.95 | 869.49 | 864.22 | 858.92 | 853.61 | 848.26 | 842.89 | 837.49

CCOS(=O)(=O)[O-].CCn1cc[n+](C)c1 [1-ethyl-3-methylimidazolium ethyl sulfate] + CCO
mass density [kg/m3]
Conditions | 278.15 K | 283.15 K | 288.15 K | 293.15 K | 298.15 K | 303.15 K | 308.15 K
x2 = 0 | 1251.4 | 1247.84 | 1244.39 | 1241.01 | 1237.63 | 1234.24 | 1230.87
x2 = 0.016 | 1249.64 | 1246.08 | 1242.65 | 1239.25 | 1235.85 | 1232.45 | 1229.05
x2 = 0.0254 | 1248.22 | 1244.65 | 1241.24 | 1237.84 | 1234.43 | 1231.03 | 1227.63
x2 = 0.0425 | 1246.12 | 1242.58 | 1239.16 | 1235.76 | 1232.34 | 1228.94 | 1225.53
x2 = 0.0877 | 1240.95 | 1237.47 | 1234.04 | 1230.59 | 1227.18 | 1223.75 | 1220.34
x2 = 0.1178 | 1235.48 | 1232.05 | 1228.59 | 1225.14 | 1221.7 | 1218.26 | 1214.84
x2 = 0.142 | 1231.31 | 1227.85 | 1224.38 | 1220.92 | 1217.47 | 1214.02 | 1210.59
x2 = 0.2344 | 1216.31 | 1212.79 | 1209.28 | 1205.78 | 1202.3 | 1198.83 | 1195.36
x2 = 0.4236 | 1174.57 | 1170.96 | 1167.36 | 1163.79 | 1160.21 | 1156.65 | 1153.1
x2 = 0.6005 | 1116.78 | 1113.06 | 1109.36 | 1105.67 | 1101.99 | 1098.32 | 1094.66
x2 = 0.7305 | 1055.36 | 1051.54 | 1047.72 | 1043.92 | 1040.12 | 1036.36 | 1032.55
x2 = 0.833 | 987.08 | 983.14 | 979.21 | 975.3 | 971.37 | 967.46 | 963.54
x2 = 0.9022 | 925.53 | 921.55 | 917.81 | 913.45 | 910.22 | 906.22 | 902.18
x2 = 0.9567 | 863.73 | 860.74 | 856.8 | 851.32 | 848.59 | 844.44 | 840.27
x2 = 0.9846 | 826.39 | 822.21 | 818.01 | 813.81 | 809.59 | 805.36 | 801.09
x2 = 0.9924 | 814.42 | 810.28 | 806.17 | 801.75 | 797.8 | 793.53 | 789.23
x2 = 0.9963 | 808.01 | 803.79 | 799.55 | 795.3 | 791.03 | 786.74 | 782.41
